Measurements published in patent US6407288B1, “Naphthylsalicylanilides as antimicrobial and antiinflammatory agents” (The Research Foundation of State University of New York, priority 2000, dated 2002).

Key:
S. species R = assay: Staphylococcus MIC; assay type: cell-based, staphylococcus species R; conditions: second Table 5 (Example 5); strain 00-045-1209
Description: (§1) The MIC's for the compounds were determined by a modified microdilution tube dilution method described in “Methods for Dilution Antimicrobial Susceptibility Tests for Bacteria that Grow Aerobically” (National Committee for Clinical Laboratory Standards Approved Standards, 1997, NCCLS document M7-A4). In general the modifications were made because of the unique growth requirements for the fastidious oral organisms and for those bacteria that require anaerobic conditions. Reference is also made to “Methods for Antimicrobial Susceptibility of Anaerobic Bacteria” (National Committee for Clinical Laboratory Standards Approved Standards, 1997, NCCLS document M11-A4).
(§2) Briefly, the methods were as follows. Cultures were grown for 18-24hrs (aerobic bacteria) or 48-72 hrs (anaerobic bacteria) in the appropriate medium. For aerobic bacteria full strength brain heart infusion medium (BHI, Difco) was used. For anaerobic bacteria, half strength BHI (18.5 g/L) was supplemented by adding yeast extract (10 g/L), hemin (0.29 mL of a stock solution containing 0.1 g/200 mL dH2O) and menadione (15 mL of a stock solution containing 0.15 mL in 30 mL 95% EtOH) was used. Initial cultures were diluted to approximately 1×10^8 CFU/mL for use as an inoculum. Each assay received 10 μL of the inoculum. The drugs were prepared from a stock solution contained in dimethyl sulfoxide (DMSO) and diluted into the culture medium. Final concentrations of the drugs ranged from 50 to 0.05 μg/assay. The tests were run in duplicate and were incubated appropriately with regard to oxygen requirements for 24 to 48 hrs as required. Anaerobic incubation was an atmosphere of 5% CO2, 10% H2, with the balance N2. The lowest concentration of an antimicrobial agent at which no visible growth is noted was referred to as the MIC.
(§3) This embodiment describes the sensitivity of various staphylococcus strains to the compounds of the present invention. The staphylococcus species R is a strain 00-045-1209 from the Children's Hospital in Buffalo. It was isolated from the peritoneal cavity (fluid culture) of an individual. It was coagulase negative. The sensitivity of this strain was tested agaisnt several known antibiotics.

S.salivarius = assay: MIC microdilution, gram positive; assay type: cell-based, Streptococcus salivarius; conditions: Table 1, Gram Positive
Description: (§4) The MIC's for the compounds were determined by a modified microdilution tube dilution method described in “Methods for Dilution Antimicrobial Susceptibility Tests for Bacteria that Grow Aerobically” (National Committee for Clinical Laboratory Standards Approved Standards, 1997, NCCLS document M7-A4). In general the modifications were made because of the unique growth requirements for the fastidious oral organisms and for those bacteria that require anaerobic conditions. Reference is also made to “Methods for Antimicrobial Susceptibility of Anaerobic Bacteria” (National Committee for Clinical Laboratory Standards Approved Standards, 1997, NCCLS document M11-A4). Briefly, the methods were as follows. Cultures were grown for 18-24hrs (aerobic bacteria) or 48-72 hrs (anaerobic bacteria) in the appropriate medium. For aerobic bacteria full strength brain heart infusion medium (BHI, Difco) was used. For anaerobic bacteria, half strength BHI (18.5 g/L) was supplemented by adding yeast extract (10 g/L), hemin (0.29 mL of a stock solution containing 0.1 g/200 mL dH2O) and menadione (15 mL of a stock solution containing 0.15 mL in 30 mL 95% EtOH) was used. Initial cultures were diluted to approximately 1×10^8 CFU/mL for use as an inoculum. Each assay received 10 μL of the inoculum. The drugs were prepared from a stock solution contained in dimethyl sulfoxide (DMSO) and diluted into the culture medium. Final concentrations of the drugs ranged from 50 to 0.05 μg/assay. The tests were run in duplicate and were incubated appropriately with regard to oxygen requirements for 24 to 48 hrs as required. Anaerobic incubation was an atmosphere of 5% CO2, 10% H2, with the balance N2. The lowest concentration of an antimicrobial agent at which no visible growth is noted was referred to as the MIC.

P. ging 381 = assay: MIC microdilution, gram negative; assay type: cell-based, Porphyromonas gingivalis
Description: (§5) The MIC's for the compounds were determined by a modified microdilution tube dilution method described in “Methods for Dilution Antimicrobial Susceptibility Tests for Bacteria that Grow Aerobically” (National Committee for Clinical Laboratory Standards Approved Standards, 1997, NCCLS document M7-A4). In general the modifications were made because of the unique growth requirements for the fastidious oral organisms and for those bacteria that require anaerobic conditions. Reference is also made to “Methods for Antimicrobial Susceptibility of Anaerobic Bacteria” (National Committee for Clinical Laboratory Standards Approved Standards, 1997, NCCLS document M11-A4). Briefly, the methods were as follows. Cultures were grown for 18-24hrs (aerobic bacteria) or 48-72 hrs (anaerobic bacteria) in the appropriate medium. For aerobic bacteria full strength brain heart infusion medium (BHI, Difco) was used. For anaerobic bacteria, half strength BHI (18.5 g/L) was supplemented by adding yeast extract (10 g/L), hemin (0.29 mL of a stock solution containing 0.1 g/200 mL dH2O) and menadione (15 mL of a stock solution containing 0.15 mL in 30 mL 95% EtOH) was used. Initial cultures were diluted to approximately 1×10^8 CFU/mL for use as an inoculum. Each assay received 10 μL of the inoculum. The drugs were prepared from a stock solution contained in dimethyl sulfoxide (DMSO) and diluted into the culture medium. Final concentrations of the drugs ranged from 50 to 0.05 μg/assay. The tests were run in duplicate and were incubated appropriately with regard to oxygen requirements for 24 to 48 hrs as required. Anaerobic incubation was an atmosphere of 5% CO2, 10% H2, with the balance N2. The lowest concentration of an antimicrobial agent at which no visible growth is noted was referred to as the MIC. […] The method used was the same as described in Example 1.

Pg 53977 = assay: MIC microdilution, gram negative; assay type: cell-based, Porphyromonas gingivalis
Description: as §5

S. sanguis = assay: MIC microdilution, gram positive; assay type: cell-based, Streptococcus sanguis; conditions: Table 1, Gram Positive
Description: as §4

P. acnes 11828 = assay: MIC microdilution, gram positive; assay type: cell-based, Propionibacterium acnes; conditions: Table 1, Gram Positive
Description: as §4

P. acnes 6922 = assay: MIC microdilution, gram positive; assay type: cell-based, Propionibacterium acnes; conditions: Table 1, Gram Positive
Description: as §4

S. aureus = assay: MIC microdilution, gram positive; assay type: cell-based, Staphlococcus aureus
Description: as §1, §2, §3

A. viscosus = assay: MIC microdilution, gram positive; assay type: cell-based, Actinomyces viscosus; conditions: Table 2, Gram Positive
Description: as §4

M. luteus = assay: MIC microdilution, gram positive; assay type: cell-based, Micrococcus luteus; conditions: Table 2, Gram Positive
Description: as §4

Str. pn = assay: Mean Streptococcus MIC; assay type: cell-based; conditions: Table 5, mean
Description: as §1, §2
(§6) This embodiment illustrates the efficacy of the compounds of the present invention against Streptococcus strains. One of the strains, Str.pn.R was obtained from the Children's Hospital in Buffalo (strain 00-041-0614). […] The sensitivity of this strain was tested against several known antibiotics.

Str. pyo = assay: Mean Streptococcus MIC; assay type: cell-based; conditions: Table 5, mean
Description: as §1, §2, §6

Str. pn. R = assay: Mean Streptococcus MIC; assay type: cell-based; conditions: Table 5, mean; strain resistant to penicillin and erythromycin
Description: as §1, §2, §6

Aa Y4 = assay: MIC microdilution, gram negative; assay type: cell-based, Actinobacillus actinomycetemcomitans
Description: as §5

Fuso. 25586 = assay: MIC microdilution, gram negative; assay type: cell-based, Fusobacterium nucleatum
Description: as §5

Lact 7496 = assay: MIC microdilution, gram positive; assay type: cell-based, Lactobacillus rhamnosus (casei); conditions: Table 2, Gram Positive
Description: as §4

B. fragilis = assay: MIC microdilution, gram negative; assay type: cell-based, Bacteroides fraglis
Description: as §5

S. mutans = assay: MIC microdilution, gram positive; assay type: cell-based, Streptococcus mutans; conditions: Table 1, Gram Positive
Description: as §4

[1] = Table 3 printed a second time, Gram Negative

Row | Structure (SMILES) | MIC S. species R (S. species R) | MIC S.salivarius (S.salivarius) | MIC P. ging 381 (P. ging 381; Table 3, Gram Negative) [micrograms/ml] | MIC P. ging 381 (P. ging 381; [1]) [micrograms/ml] | MIC Pg 53977 (Pg 53977; Table 3, Gram Negative) [micrograms/ml] | MIC Pg 53977 (Pg 53977; [1]) [micrograms/ml] | MIC S. sanguis (S. sanguis) [micrograms/ml] | MIC P. acnes 11828 (P. acnes 11828) [micrograms/ml] | MIC P. acnes 6922 (P. acnes 6922) [micrograms/ml] | MIC S. aureus (S. aureus; Table 2, Gram Positive) | MIC S. aureus (S. aureus; second Table 5 (Example 5)) | MIC A. viscosus (A. viscosus) [micrograms/ml] | MIC M. luteus (M. luteus) [micrograms/ml] | Mean Streptococcus MIC values Str. pn (Str. pn) [micrograms/ml] | Mean Streptococcus MIC values Str. pyo (Str. pyo) | Mean Streptococcus MIC values Str. pn. R (Str. pn. R) [micrograms/ml] | MIC Aa Y4 (Aa Y4; Table 3, Gram Negative) | MIC Aa Y4 (Aa Y4; [1]) | MIC Fuso. 25586 (Fuso. 25586; Table 3, Gram Negative) | MIC Fuso. 25586 (Fuso. 25586; [1]) | further results
1 | CCCCCCCCCCCCS(=O)(=O)c1ccc(O)c(C(=O)Nc2cccc(C(F)(F)F)c2)c1 [TMF-12, reference compound] | NE (NE indicates that the drug was not effective at a concentration >50 micrograms/ml) | NE (NE indicates that the drug was not effective at a concentration >50 micrograms/ml) | 0.4 | 0.4 | 0.4 | 0.4 | 12.5 | 0.2 | 0.4 | NE (NE indicates that the drug was not effective at a concentration >50 micrograms/ml) | NE (NE indicates that the drug was not effective at a concentration >50 micrograms/ml) | 1.6 | 0.8 | 0.65 | 0.47 micrograms/ml | 0.78 | NE (NE indicates that the drug was not effective at a concentration >50 micrograms/ml) | NE (NE indicates that the drug was not effective at a concentration >50 micrograms/ml) | NE (NE indicates that the drug was not effective at a concentration >50 micrograms/ml) | NE (NE indicates that the drug was not effective at a concentration >50 micrograms/ml) | MIC Lact 7496 (Lact 7496): 3.1 micrograms/ml; MIC B. fragilis (B. fragilis; Table 3, Gram Negative): NE (NE indicates that the drug was not effective at a concentration >50 micrograms/ml); MIC B. fragilis (B. fragilis; [1]): NE (NE indicates that the drug was not effective at a concentration >50 micrograms/ml); MIC S. mutans (S. mutans): NE (NE indicates that the drug was not effective at a concentration >50 micrograms/ml)
2 | N#Cc1cccc(NC(=O)c2cc(C(=O)c3ccc4ccccc4c3)ccc2O)c1 [NA2mC] | NE (NE indicates that the drug was not effective at a concentration >50 micrograms/ml) | 50 micrograms/ml | 0.8 | 0.8 | 0.8 | 0.8 | 6.3 | 12.5 | 6.3 | NE (NE indicates that the drug was not effective at a concentration >50 micrograms/ml) | NE (NE indicates that the drug was not effective at a concentration >50 micrograms/ml) | 1.6 | 3.1 | 0.91 | NE (NE indicates that the drug was not effective at a concentration >50 micrograms/ml) | 6.25 | NE (NE indicates that the drug was not effective at a concentration >50 micrograms/ml) | NE (NE indicates that the drug was not effective at a concentration >50 micrograms/ml) | NE (NE indicates that the drug was not effective at a concentration >50 micrograms/ml) | NE (NE indicates that the drug was not effective at a concentration >50 micrograms/ml) | MIC Lact 7496 (Lact 7496): 12.5 micrograms/ml; MIC B. fragilis (B. fragilis; Table 3, Gram Negative): 3.1 micrograms/ml; MIC B. fragilis (B. fragilis; [1]): 3.1 micrograms/ml; MIC S. mutans (S. mutans): 6.3 micrograms/ml
